According to publication PMC8816498, “A Customized Screening Tool Approach for the Development of a Self-Nanoemulsifying Drug Delivery System (SNEDDS)” (AAPS PharmSciTech, 2021):

How the values were obtained:
[1] = Saturation solubility of the drug in individual excipients; assay type: physicochemical; settings: 37 °C, 24 h
Description: The saturation solubility of each drug in each of the individual excipients was investigated in triplicate by the following procedure: first, drug and excipients were blended in 2-ml safe lock test tubes ([17], [23], [26]). After short, intense vortex mixing, the mixtures were agitated at 1000 rpm for 24 h at 37 °C under light protection using a ThermoMixer® C (Eppendorf AG, Hamburg, Germany) to achieve an equilibrium state ([7], [12], [16], [17], [23], [26], [27]). […] After centrifugation at 37 °C, a defined mass (50 mg) of the supernatant was withdrawn and transferred to a 25-ml volumetric flask, and the sample was diluted with methanol to a total volume of 25.0 ml. Finally, a sample of 1 ml was analyzed using one of the previously described drug-specific HPLC methods.

[2] = media of pH 1, 4.5 and 6.8; 120 min; at the time of manufacture
Description: All experiments were performed in triplicate with 25 mg of the specific drug, or an equivalent amount of drug-loaded SNEDDS (300 µl) using USP apparatus II (DT 800 LH, ERWEKA GmbH, Langen, Germany). Dissolution was studied in 0.1 N hydrochloric acid (pH 1.0), acetate buffer USP (pH 4.5), and phosphate buffer USP (pH 6.8). All experiments were performed in a media volume of 500 ml at 37 ± 0.5 °C using a paddle speed of 100 rpm. All samples were withdrawn automatically using a fraction collector, equipped with cannula filters of 10 µm pore size and manually diluted 1:1 (v/v) with acetonitrile before HPLC analysis.

SMILES | Solubility in Miglyol 812 [1] | Solubility in co-solvents ([1]; Tetra EG, Transcutol HP, Carbowax PEG 400) | Dissolution behaviour [2]
Cc1ccc(-c2cc(C(F)(F)F)nn2-c2ccc(S(N)(=O)=O)cc2)cc1 [Celecoxib] | exceptionally low solubility | high solubility | poor solubility
CC(C)OC(=O)C(C)(C)Oc1ccc(C(=O)c2ccc(Cl)cc2)cc1 [Fenofibrate] |  |  | poor solubility
